For orientation: MIC means the least concentration at which growth counts as inhibited. As a reminder, the solubility is how much of the substance goes into solution per volume. The low end stands for little dissolved substance, the high end for much dissolved substance.

Values after ≈ are worked out from the molar mass of the structure shown.

One series deals with Streptococcus pneumoniae. Kind of series: Antibacterial activity against penicillin resistant Streptococcus pneumoniae A28272. It counts as functional.
In a further series the test system is Staphylococcus aureus. Kind of series: Antibacterial activity against methicillin-sensitive Staphylococcus aureus A15090. The class given is functional.
Series [1] can be described thus: Solubility at pH 3.5. The class given is physicochemical. Conditions: buffer.
The subject of a further series is Enterococcus faecalis. The series is described as follows: Antibacterial activity against […] A20688. It counts as functional.
Series [2] in a line: Solubility at pH 8.1. It counts as physicochemical. To be noted: buffer.
Series [3] can be described thus: Solubility at pH 3.4. The class given is physicochemical. To be noted: buffer.
The species entered for the next series is Mus musculus. Kind of series: Activity against Staphylococcus aureus A15090 infected ICR mouse after 8 days. It counts as functional. To be noted: 192 h, read-out: PD50.

On to `CO/C(C)=C1/NC(=O)[C@H]([C@@H](C)O)NC(=O)c2csc(n2)-c2cc(O)c(-c3nc(C(=O)N[C@@H](C)C(=O)NCCN(C)C)cs3)nc2-c2csc(n2)[C@@H]2COC(=O)c3c4c5c(cccc5n3O)COC(=O)[C@@H](O[C@H]3C[C@](C)(O)[C@H](N(C)C)[C@H](C)O3)[C@@H](OC4)[C@H](NC(=O)c3csc1n3)c1nc(cs1)C(=O)N2`, for which the results for the minimal inhibitory concentration (MIC) against Streptococcus pneumoniae, against Staphylococcus aureus and with Enterococcus faecalis were 0.125 µg/mL (≈ 0.0827 µM), 0.125 µg/mL (≈ 0.0827 µM) and 0.25 µg/mL (≈ 0.165 µM), respectively. In series [1], this molecule showed a solubility of more than 2400 µg/mL.

Take `CO/C(C)=C1/NC(=O)[C@H]([C@@H](C)O)NC(=O)c2csc(n2)-c2cc(O)c(-c3nc(C(=O)N[C@@H](C)C(=O)NCCCP(=O)([O-])O)cs3)nc2-c2csc(n2)[C@@H]2COC(=O)c3c4c5c(cccc5n3O)COC(=O)[C@@H](O[C@H]3C[C@](C)(O)[C@H](N(C)C)[C@H](C)O3)[C@@H](OC4)[C@H](NC(=O)c3csc1n3)c1nc(cs1)C(=O)N2.[Na+]`: the MIC with Streptococcus pneumoniae was determined as 0.25 µg/mL; against Staphylococcus aureus it was 8 µg/mL; with Enterococcus faecalis, 32 µg/mL. In addition, the solubility in series [2] is more than 1700 µg/mL.

For the molecule `CO/C(C)=C1/NC(=O)[C@H]([C@@H](C)O)NC(=O)c2csc(n2)-c2cc(O)c(-c3nc(C(=O)N[C@@H](C)C(=O)N(CCO)CCO)cs3)nc2-c2csc(n2)[C@@H]2COC(=O)c3c4c5c(cccc5n3O)COC(=O)[C@@H](O[C@H]3C[C@](C)(O)[C@H](N(C)C)[C@H](C)O3)[C@@H](OC4)[C@H](NC(=O)c3csc1n3)c1nc(cs1)C(=O)N2`, the figures for the MIC with Streptococcus pneumoniae, with Staphylococcus aureus and against Enterococcus faecalis were 0.25 µg/mL (≈ 0.164 µM), 0.25 µg/mL (≈ 0.164 µM) and 0.5 µg/mL (≈ 0.327 µM), respectively. The solubility in series [3] is more than 1200 µg/mL. Also, the ED50 in the series filed under Mus musculus is more than 10 mg/kg.

The values above are taken from ChEMBL document CHEMBL1138895, “Synthesis and antibacterial activity of nocathiacin I analogues” (Bioorg Med Chem Lett, 2006).
